Experimental data reported in US11311599B2, “β-1,3-glucan-peptide complex: compositions and methods” (priority 2018, dated 2022).
No end group written: not given here.

Assays:
NADPH oxidase [1] = experiment: NADPH oxidase activity in spleen of CLP mice; assay type: in vivo; settings: spleen of CLP mouse; intraperitoneal at 3, 6 and 12 hours, doses of Table 1; FIG. 3
Procedure: (§1) The pharmaceutical composition of the present invention was intraperitoneally administered into a CLP mouse to confirm an antiinflammatory effect thereof. Specifically, the CLP mouse was anesthetized by administering pentothal sodium (50 mg/kg) intraperitoneally, and then its abdomen was dissected to expose the cecum. The cecum was ligated below the ileocecal valve, punctured twice with a 22-gauge needle, and then the abdomen was closed.
(§2) Sepsis mouse models induced by cecal ligation and puncture (CLP) were prepared using 6-week-old C57BL/6 female mice (Samtako, Korea). All animal-related procedures were approved by the Institutional Animal Care and Use Committee of Hanyang University. The CLP mice were intraperitoneally administered three times (at 3, 6 and 12 hours) with an administered substance shown in Table 1. SPG-SC is a peptide complex having a sequence in which SPG-SH3 sequences were randomly mixed, and as the antibiotic, a combination of gentamycin and cephalosporin was used.
(§3) Particularly, CLP mice (n=5) treated with the same administered substances as in Example <1-1> were prepared. […] Alternatively, the spleen of the CLP mouse was obtained and fractionated, a 5 μM reagent in a mitochondrial ROS activity assay kit (CA-R933) was treated for 60 minutes, and Ex/Em was measured at 490/525 nm. […]

IL-6 = IL-6 in peripheral blood of CLP mice (ELISA); assay type: in vivo, mouse; settings: 20 hours after treatment, FIG. 5
Procedure: as §2
(§4) Whether a pro-inflammatory cytokine was inhibited when CLP mice were treated with a combination of SPG-SH3 and an antibiotic was determined.
(§5) Specifically, 20 hours after CLP mice were treated with the same administered substances as in Example <1-1>, the peripheral blood was obtained. The concentrations of TNF-α, IL-6, IL-1β and IL-18 in the blood were measured using an ELISA kit (BD Biosciences).

CLP mice [2] = experiment: Total ROS in spleen of CLP mice; assay type: in vivo; settings: spleen of CLP mouse; intraperitoneal at 3, 6 and 12 hours, doses of Table 1; FIG. 3
Procedure: as §1, §2, §3

NADPH oxidase [3] = experiment: NADPH oxidase activity in LPS-stimulated RAW2647 cells (lucigenin-ECL superoxide); assay type: cell-based, mouse; settings: RAW2647 cells stimulated with LPS; treated at 1, 5 or 10 μg/mL; FIG. 2
Procedure: A mouse macrophage cell line, which is RAW2647 (ATCCTIB-71; American Type Culture Collection) cells, was cultured using DMEM (Invitrogen) containing 10% fetal bovine serum (FBS; Invitrogen), sodium pyruvate, non-essential amino acids, penicillin G (100 IU/ml) and streptomycin (100 μg/ml).
Whether reactive oxygen species (ROS) production is inhibited when RAW2647 cells were treated with each of SPG-SH1, SPG-SH2 or SPG-SH3 was determined. Particularly. NADPH oxidase (NOX) activity and a mitochondrial ROS level were confirmed.
Particularly, after the RAW2647 cells were stimulated with LPS, SPG-SH1, SPG-SH2 or SPG-SH3 was treated at a concentration of 1, 5 or 10 μg/mL, respectively. The NADPH oxidase activity was confirmed by measuring the production of a superoxide in the RAW2647 cells by a lucigenin (bis-N-methylacridinium nitrate)-ECL method. The production of mitochondrial ROS was determined by staining the RAW2647 cells with 5 μM of MitoSOX for 30 minutes and then measuring mean fluorescence intensity (MFI) by FACS analysis.

CLP mice [4] = experiment: Survival of mice with CLP-induced sepsis; assay type: in vivo, mouse; settings: approximately 60 hours after CLP treatment, doses of Table 1, FIG. 4
Procedure: as §1, §2
Specifically. CLP mice (n=7, twice; total 14) were treated with the administered substances as in Example <1-1> and monitored for 7 days.

IL-1β = IL-1β in peripheral blood of CLP mice (ELISA); assay type: in vivo, mouse; settings: 20 hours after treatment, FIG. 5
Procedure: as §2, §4, §5

TNF-α = TNF-α in peripheral blood of CLP mice (ELISA); assay type: in vivo, mouse; settings: 20 hours after treatment, FIG. 5
Procedure: as §2, §4, §5

IL-18 = IL-18 in peripheral blood of CLP mice (ELISA); assay type: in vivo, mouse; settings: 20 hours after treatment, FIG. 5
Procedure: as §2, §4, §5

NADPH oxidase, sequence (O70145 whole entry): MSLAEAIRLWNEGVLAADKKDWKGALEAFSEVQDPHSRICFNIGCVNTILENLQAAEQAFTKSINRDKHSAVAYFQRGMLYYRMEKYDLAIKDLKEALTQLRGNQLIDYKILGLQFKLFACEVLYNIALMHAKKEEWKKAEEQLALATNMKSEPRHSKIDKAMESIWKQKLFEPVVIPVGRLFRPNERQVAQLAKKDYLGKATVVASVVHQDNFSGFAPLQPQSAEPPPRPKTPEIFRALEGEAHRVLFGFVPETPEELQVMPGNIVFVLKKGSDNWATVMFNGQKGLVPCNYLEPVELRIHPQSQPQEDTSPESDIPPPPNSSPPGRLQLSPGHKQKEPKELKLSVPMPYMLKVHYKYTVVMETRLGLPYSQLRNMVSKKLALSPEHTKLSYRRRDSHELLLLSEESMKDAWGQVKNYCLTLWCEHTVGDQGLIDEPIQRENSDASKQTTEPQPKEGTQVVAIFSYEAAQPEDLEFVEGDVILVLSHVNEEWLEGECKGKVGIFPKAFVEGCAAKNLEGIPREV
NADPH oxidase, sequence (Q09014 whole entry, further chain): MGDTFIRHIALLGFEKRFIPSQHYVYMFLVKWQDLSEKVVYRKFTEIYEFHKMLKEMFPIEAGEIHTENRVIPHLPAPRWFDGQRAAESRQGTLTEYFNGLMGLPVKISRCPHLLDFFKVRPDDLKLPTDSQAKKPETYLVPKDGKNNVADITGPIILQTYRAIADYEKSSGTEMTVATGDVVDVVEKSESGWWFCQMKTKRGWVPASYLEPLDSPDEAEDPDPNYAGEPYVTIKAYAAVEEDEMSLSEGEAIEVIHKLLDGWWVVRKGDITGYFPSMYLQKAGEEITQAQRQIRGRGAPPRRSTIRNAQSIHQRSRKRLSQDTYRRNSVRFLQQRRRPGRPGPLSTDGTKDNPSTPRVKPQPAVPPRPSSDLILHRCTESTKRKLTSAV

Row | Substance | NADPH oxidase activity level (NADPH oxidase [1]) | concentration of IL-6 (IL-6) | total ROS level (CLP mice [2]) | NADPH oxidase activity (NADPH oxidase [3]) | survival rate (CLP mice [4]) | concentration of IL-1β (IL-1β) | concentration of TNF-α (TNF-α) | concentration of IL-18 (IL-18)
1 | SPG-SH3: β-glucan-peptide complex: schizophyllan (β-1,3-glucan) carboxylated and linked to amine group of SH3 peptide (SEQ ID NO: 4, ALLSFKKGGQTGYIPSNYV) (also: linked via amine group to carboxylated schizophyllan β-glucan) | significantly reduced | significantly reduced | significantly reduced | lowest | approximately 70% | significantly reduced | significantly reduced | significantly reduced
2 | SH3: SH3 peptide, SEQ ID NO: 4, ALLSFKKGGQTGYIPSNYV, 19 amino acids, from SH3-1 and SH3-2 sequences of c-Src (SH3) |  |  |  | lowest |  |  |  | 
